Reference: ChEMBL document CHEMBL1158297, “Compounds from Syzygium aromaticum possessing growth inhibitory activity against oral pathogens” (1996)
Converted amounts (≈) assume the structure as drawn.

Tests used:
Assay type in all cases: functional
Porphyromonas gingivalis = experiment: Antimicrobial activity against Porphyromonas gingivalis ATCC 33277 by disk diffusion method
Prevotella intermedia = experiment: Antimicrobial activity against Prevotella intermedia by disk diffusion method
Streptococcus mutans = experiment: Antimicrobial activity against Streptococcus mutans Ingbritt by disk diffusion method
Actinomyces viscosus = experiment: Antimicrobial activity against Actinomyces viscosus W1053 by disk diffusion method

Row | SMILES | MIC (Porphyromonas gingivalis) [µg/mL] | MIC (Prevotella intermedia) [µg/mL] | MIC (Streptococcus mutans) [µg/mL] | MIC (Actinomyces viscosus) [µg/mL]
1 | O=C(O)c1cc(O)c(O)c(O)c1 [GALLIC ACID] | 156 (≈ 917 µM) | 78 (≈ 458 µM) | > 2500 | 78 (≈ 458 µM)
2 | COc1cc(O)c2c(=O)c(O)c(-c3ccc(O)cc3)oc2c1 [RHAMNOCITRIN] | 625 (≈ 2080 µM) | 625 (≈ 2080 µM) | 1250 (≈ 4160 µM) | 1250 (≈ 4160 µM)
3 | CC1(C)CC[C@]2(C(=O)O)CC[C@]3(C)C(=CC[C@@H]4[C@@]5(C)CC[C@H](O)C(C)(C)[C@@H]5CC[C@]43C)[C@@H]2C1 [OLEANOLIC_ACID] | 625 (≈ 1370 µM) | 1250 (≈ 2740 µM) | 1250 (≈ 2740 µM) | 625 (≈ 1370 µM)
4 | C[n+]1cc2c3c(ccc2c2ccc4cc5c(cc4c21)OCO5)OCO3 [SANGUINARIUM] | 2 | 2 | 15 | 15
5 | Cc1cc(=O)c2c(O)c([C@@H]3O[C@H](CO)[C@@H](O)[C@H](O)[C@H]3O)c(O)cc2o1 [BIFLORIN] | 625 (≈ 1760 µM) | 625 (≈ 1760 µM) | > 2500 | > 2500
6 | O=c1c(O)c(-c2cc(O)c(O)c(O)c2)oc2cc(O)cc(O)c12 [MYRICETIN] | 20 (≈ 62.8 µM) | 20 (≈ 62.8 µM) | 2500 (≈ 7860 µM) | 1250 (≈ 3930 µM)
7 | O=c1c(O)c(-c2ccc(O)cc2)oc2cc(O)cc(O)c12 [KAEMPFEROL] | 20 (≈ 69.9 µM) | 20 (≈ 69.9 µM) | 2500 (≈ 8730 µM) | 1250 (≈ 4370 µM)
8 | O=c1oc2c(O)c(O)cc3c(=O)oc4c(O)c(O)cc1c4c23 [ELLAGIC ACID] | 1250 (≈ 4140 µM) | 1250 (≈ 4140 µM) | 1250 (≈ 4140 µM) | 1250 (≈ 4140 µM)
